Where a name gives a salt, the structure may show the parent alone.
How the values were obtained:
[1] = system: allergic rabbits; settings: baseline BHR, aerosolized histamine, n=5
Protocol: All animals were anesthetized and intubated. All treatments were administered via an endotracheal tube with an ultrasonic nebulizer that produces aerosol droplets (80% are less than 5 μm). Dynamic compliance (Cdyn) was calculated from tidal volume and the difference in transpulmonary pressure (PTP) at zero flow (V). Total lung resistance (RT) was calculated as the ratio of PTP and V at […] lung volumes; these measurements are made automatically with the Buxco Respiratory Analyzer.

[2] = cited from earlier work
[3] = system: allergic rabbits; test: Adenosine provocation test after aerosol L-97-1 in allergic rabbits (PC50 of adenosine, lung compliance); assay type: in vivo, rabbit; settings: controls without L-97-1, aerosolized adenosine, n=9

NCCc1c[nH]cn1 [histamine]
PC50 for histamine (concentration of histamine to reduce lung compliance by 50%) [1]: 0.77 ± 0.28 mg/mL

OCc1cc(C(O)CNCCCCCCOCCCCc2ccccc2)ccc1O (stereo not drawn) [salmeterol xinafoate, salmeterol 1-hydroxy-2-napthoic acid salt]
Solubility in water [2]: sparingly soluble in water

Nc1ncnc2c1ncn2[C@@H]1O[C@H](CO)[C@@H](O)[C@H]1O [adenosine]
PC50 for adenosine (concentration of adenosine to reduce lung compliance by 50%) [3]: 3.24 ± 1.79 mg/mL

Source: patent US20070219223A1, “Compositions and methods for treating respiratory disorders” (Endacea, Inc., priority 2006, published 2007)
